Key:
[1] = mouse, in vivo
[2] = system: B. anthracis Sterne strain spores; parameters: species or system Bacillus anthracis; conditions: in vivo

O=C(O)c1cn(C2CC2)c2cc(N3CCNCC3)c(F)cc2c1=O [ciprofloxacin]
tolerance to selected dose [1]: favorably tested

C[C@H]1c2cccc(O)c2C(=O)C2=C(O)[C@]3(O)C(=O)C(C(N)=O)=C(O)[C@@H](N(C)C)[C@@H]3[C@@H](O)[C@@H]21 [doxycycline]
tolerance [1]: not well tolerated

CN(C)[C@@H]1C(O)=C(C(N)=O)C(=O)[C@@]2(O)C(O)=C3C(=O)c4c(O)cccc4[C@@](C)(O)[C@H]3C[C@@H]12 [tetracycline]
survival [2]: 60%
